The record followed here is patent US8492310B2, “Herbicidal compositions containing benzoylpyrazole compounds” (priority 2008, dated 2013).

Like-named read-outs stand apart in the source and are kept apart here.

Format in all cases: in vivo
Assay [1] has as its system prickly sida (Sida spinosa L.). Description: Foliar treatment pot test, visual growth inhibition rate, prickly sida (SS). To be noted: Sida spinosa, foliar, read-out: Growth inhibition rate (%) of SS Measured value; for inhibition at 15 g/ha: 1.5-2.4 leaf stage. An excerpt:
(§1) When the herbicidal activity in a case where two active ingredients are combined, is larger than the simple sum of the respective herbicidal activities of the two active ingredients (the expected activity), it is called a synergistic effect. The activity expected by the combination of two active ingredients can be calculated as follows (Colby S. R., “Weed”, vol. 15, p. 20-22, 1967). E=α+β−(α×β÷100) where
(§2) Upland field soil was put into a 1/1,000,000 hectare pot, and seeds of various plants (barnyardgrass (Echinochloa crus-qalli L.), crabgrass (Digitaria sanguinalis L.), giant foxtail (Setaria faberi Herrm.), velvetleaf (Abutilon theophrasti MEDIC.) and prickly sida (Sida spinosa L.)) were sown. When the respective plants reached predetermined leaf stage, herbicidal compositions in predetermined amounts were diluted with water in an amount corresponding to 300 L/ha and applied for foliar treatment by a small sprayer.
(§3) Further, in accordance with the above Colby's formula, the growth inhibition rate (calculated value) was calculated. In Tables, with respect to the compound Q, Compound Nos. in Table 1 are described, and with respect to other herbicidal compounds, common names are described. Further, in Tables, barnyardgrass is represented by “EC”, crabgrass by “DS”, giant foxtail by “SF”, velvetleaf by “AT”, and prickly sida by “SS”.

The subject of assay [2] is velvetleaf (Abutilon theophrasti MEDIC.). Kind of assay: Foliar treatment pot test, visual growth inhibition rate, velvetleaf (AT). The note with it: Abutilon theophrasti, foliar, read-out: Growth inhibition rate (%) of AT Measured value.
Description: as §1, §2, §3

Assay [3] deals with crabgrass (Digitaria sanguinalis L.). Kind of assay: Foliar treatment pot test, visual growth inhibition rate, crabgrass (DS). To be noted: Digitaria sanguinalis, foliar, read-out: Growth inhibition rate (%) of DS Measured value.
Description: as §1, §2, §3

The test system of assay [4] is barnyardgrass (Echinochloa crus-qalli L.). Description: Foliar treatment pot test, visual growth inhibition rate, barnyardgrass (EC). To be noted: 4.0-5.0 leaf stage, read-out: Growth inhibition rate (%) of EC Measured value.
Description: as §1, §2, §3

Where [5] appears, read: 552 h, 3.0-4.2 leaf stage, 23 DAT.
[6] abbreviates: 552 h, 4.5-5.3 leaf stage, 23 DAT.
The mark [7] stands for this setting: 528 h, 3.3-3.8 leaf stage, 22 DAT.
Where [8] appears, read: 480 h, 4.2-4.3 leaf stage, 20 DAT.
Where [9] appears, read: 480 h, 4.5-5.2 leaf stage, 20 DAT.
Setting [10] is: 480 h, 4.0-4.2 leaf stage, 20 DAT.
Setting [11] is: 480 h, 3.7-4.0 leaf stage, 20 DAT.

The term inhibition denotes the share of the control response that was lost under treatment.

On to `CCCCCCCC(=O)Oc1c(Br)cc(C#N)cc1Br` [Bromoxynil-octanoate, bromoxynil-octanoate], for which, in assay [1] (528 h, 3.0-3.3 leaf stage, 22 DAT, 25 g/ha), the inhibition at 25 g/ha came to 40%. Besides, the inhibition at 50 g/ha in assay [1] (528 h, 3.0-3.3 leaf stage, 22 DAT) turned out to be 50%. Further, the inhibition at 100 g/ha came to 50% in assay [1] (528 h, 3.0-3.3 leaf stage, 22 DAT, 100 g/ha) and 25% in assay [2] (528 h, 4.0-4.3 leaf stage, 22 DAT). The inhibition at 63 g/ha in assay [2] (504 h, 3.0-3.5 leaf stage, 21 DAT, 63 g/ha) amounted to 10%; in assay [3] (336 h, 4.0-5.0 leaf stage, 14 DAT), 0%; in assay [3] (504 h, 4.0-5.1 leaf stage, 21 DAT), 0%. Further, the inhibition at 30 g/ha turned out to be 0% in assay [2] (setting [5]) and 25% in assay [3] (552 h, 4.5-5.3 leaf stage, 23 DAT, 30 g/ha). For the same compound, the inhibition at 60 g/ha amounted to 0% in assay [2] (setting [5]) and 10% in assay [3] (setting [6]). For the same compound, the inhibition at 120 g/ha was 0% in assay [2] (setting [5]) and 45% in assay [3] (setting [6]). Besides, the inhibition at 200 g/ha in assay [2] (576 h, 3.2-4.1 leaf stage, 24 DAT, 200 g/ha) is 100%. Besides, in assay [3] (528 h, 3.1-4.0 leaf stage, 22 DAT, 77 g/ha), the inhibition at 77 g/ha is 0%.
Consider `COc1cc(OC)nc(NC(=O)NS(=O)(=O)c2ncccc2C(=O)N(C)C)n1` [Nicosulfuron, nicosulfuron], for which the inhibition at 15 g/ha stood at 45% in assay [1] (480 h, 20 DAT); 45% in assay [1] (504 h, 21 DAT); 60% in assay [2] (setting [7]). For the same compound, the inhibition at […] in assay [1] (504 h, 2.1 to 3.1 leaf stage, 21 DAT, 2.5 g/ha) was 0%. Moreover, the inhibition at 5 g/ha in assay [1] (504 h, 2.1 to 3.1 leaf stage, 21 DAT, 5 g/ha) amounted to 0%; in assay [2] (480 h, 3.1-3.4 leaf stage, 20 DAT, 5 g/ha), 10%; in assay [3] (336 h, 3.5-4.3 leaf stage, 14 DAT, 5 g/ha), 15%. Moreover, the inhibition at 10 g/ha in assay [1] (504 h, 2.1 to 3.1 leaf stage, 21 DAT, 10 g/ha) is 10%; in assay [2] (528 h, 4.0-4.4 leaf stage, 22 DAT, 10 g/ha), 40%; in assay [3] (504 h, 3.5 to 4.3 leaf stage, 21 DAT, 10 g/ha), 30%. Further, the inhibition at 20 g/ha in assay [1] (504 h, 2.1 to 3.1 leaf stage, 21 DAT, 20 g/ha) is 40%; in assay [3] (504 h, 4.5-5.1 leaf stage, 21 DAT, 20 g/ha) it was 50%. Further, the inhibition at 30 g/ha in assay [1] (504 h, 2.1 to 3.1 leaf stage, 21 DAT, 30 g/ha) was 50%; in assay [2] (setting [7]), 70%. Further, the inhibition at 50 g/ha in assay [1] (504 h, 2.1 to 3.1 leaf stage, 21 DAT) turned out to be 70%. The inhibition at 7 g/ha in assay [2] (504 h, 3.8-4.4 leaf stage, 21 DAT) was determined as 30%; in assay [2] (setting [7]), 45%. For the same compound, in assay [2] (504 h, 4.0-4.5 leaf stage, 21 DAT, 40 g/ha), the inhibition at 40 g/ha came out at 65%. For the same compound, in assay [2] (504 h, 4.0-4.5 leaf stage, 21 DAT), the inhibition at 60 g/ha is 70%. For the same compound, the inhibition at 80 g/ha was 83% in assay [2] (504 h, 4.0-4.5 leaf stage, 21 DAT, 80 g/ha) and 94% in assay [3] (504 h, 4.5-5.1 leaf stage, 21 DAT, 80 g/ha).
Take `COc1c(Cl)ccc(Cl)c1C(=O)O` [Dicamba, dicamba]: the inhibition at 200 g/ha in assay [4] (336 h, 14 DAT, 200 g/ha) was 0%; in assay [3] (504 h, 5.0-5.5 leaf stage, 21 DAT, 200 g/ha) it was 0%. Moreover, the inhibition at 100 g/ha turned out to be 35% in assay [2] (312 h, 3.3-4.2 leaf stage, 13 DAT); 43% in assay [2] (setting [8]); 55% in assay [2] (504 h, 3.5-4.3 leaf stage, 21 DAT); 0% in assay [3] (312 h, 4.4-5.0 leaf stage, 13 DAT); 0% in assay [3] (setting [9]). Further, the inhibition at 25 g/ha in assay [2] (setting [8]) turned out to be 25%; in assay [3] (setting [9]), 0%. The figures for the inhibition at 50 g/ha in assay [2] (setting [8]) and in assay [3] (setting [9]) were 35% and 0%, respectively. Besides, the inhibition at 60 g/ha in assay [2] (setting [5]) stood at 0%; in assay [3] (setting [6]) it was 55%. The values for the inhibition at 120 g/ha in assay [2] (setting [5]) and in assay [3] (setting [6]) were 0% and 75%, respectively.
Turning to `CS(=O)(=O)c1ccc(C(=O)C2C(=O)CCCC2=O)c([N+](=O)[O-])c1` [Mesotrione], the inhibition at 15 g/ha in assay [4] (504 h, 21 DAT, 15 g/ha) is 5%; in assay [2] (576 h, 3.2-4.1 leaf stage, 24 DAT), 88%. Besides, the inhibition at 25 g/ha stood at 23% in assay [2] (setting [10]); 94% in assay [2] (480 h, 4.1-4.2 leaf stage, 20 DAT); 55% in assay [3] (setting [11]). The results for the inhibition at 50 g/ha in assay [2] (setting [10]) and in assay [3] (setting [11]) were 35% and 83%, respectively. The inhibition at 12.5 g/ha in assay [2] (480 h, 4.1-4.2 leaf stage, 20 DAT, 12.5 g/ha) is 75%; in assay [3] (480 h, 5.1-5.2 leaf stage, 20 DAT, 12.5 g/ha) it was 80%.
